The target in one experiment is T1, UCP1 (Homo sapiens, UniProt P25874).
T1 construct: His8 (N, cleaved yes); Factor Xa protease cleavage site (N, cleaved yes); made in house; host or cells: Saccharomyces cerevisiae strain W303.1B
T1 sequence (P25874 1-307): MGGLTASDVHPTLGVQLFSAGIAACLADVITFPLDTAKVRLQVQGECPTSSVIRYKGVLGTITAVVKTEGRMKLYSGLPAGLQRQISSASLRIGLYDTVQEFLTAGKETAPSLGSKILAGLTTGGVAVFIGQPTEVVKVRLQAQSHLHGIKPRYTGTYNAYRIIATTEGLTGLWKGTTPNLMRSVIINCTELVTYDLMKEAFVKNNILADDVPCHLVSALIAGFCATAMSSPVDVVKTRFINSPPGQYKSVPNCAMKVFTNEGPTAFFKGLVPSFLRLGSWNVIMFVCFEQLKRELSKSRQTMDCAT
In words: Isothermal titration calorimetry of nucleotide binding.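 On all read-outs here: purified human UCP1 in cacodylate buffer with lauryl maltose neopentyl glycol and cardiolipin, titrated with nucleotides, isotherms fitted by one-site model yielding ΔH, Kd and stoichiometry.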 The note with it: for isotherm data point (enthalpy change per injection): representative isotherm. The arrangement: isotherm data point (enthalpy change per injection): unit not given here. On the technique in general: Isothermal titration calorimetry measures the heat released or taken up as one component is titrated into another.

For the next experiment, the target named is T2, human DIC (SLC25A10) (Homo sapiens, UniProt Q9UBX3).
T2 construct: His8 (N, cleaved yes); Factor Xa protease cleavage site (N, cleaved yes); made in house; host or cells: Saccharomyces cerevisiae protease-deficient strain BJ2186
T2 sequence (Q9UBX3 1-287): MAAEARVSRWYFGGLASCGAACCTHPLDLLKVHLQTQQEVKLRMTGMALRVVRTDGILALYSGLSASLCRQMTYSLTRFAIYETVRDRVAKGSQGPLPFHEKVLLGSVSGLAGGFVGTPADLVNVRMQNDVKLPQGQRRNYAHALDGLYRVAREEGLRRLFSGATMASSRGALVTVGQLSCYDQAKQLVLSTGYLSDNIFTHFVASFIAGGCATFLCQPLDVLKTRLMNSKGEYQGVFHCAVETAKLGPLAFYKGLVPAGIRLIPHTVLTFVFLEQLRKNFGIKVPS
In words: Differential scanning fluorimetry (nanoDSF) thermal stability shift assay. The format is binding. The settings on record: 1 mM nucleotide, pH 6.0, single repeats (source data Fig. 4A). The text has this: (§1) UCP1 is phylogenetically related to mitochondrial dicarboxylate carriers, gaining thermogenic properties as a later evolutionary development (Hughes et al, [2009]; Robinson et al, [2008]). The mitochondrial dicarboxylate carrier (DIC, SLC25A10) and oxoglutarate carrier (OGC, SLC25A11) are most closely related to UCP1 (Gaudry et al, [2019]; Hughes et al, [2009]) and share many residues involved in nucleotide binding in UCP1, such as the arginine triplet at the contact points, R92 and Q85 (Jones et al, [2024]). Given the similarity of the central cavity of UCP1, OGC and DIC, we tested whether the dicarboxylate carriers have the ability to bind nucleotides. For this purpose, we purified human DIC and OGC, and tested whether nucleotides were able to generate a thermostability shift, as observed for their physiological substrates (Pyrihová et al, [2024]). However, all tested nucleotides caused a negligible shift with both DIC or OGC at all pH values tested between 6.0 and 8.0 (Fig. 4A; Appendix Fig. S5). Thus, despite having many residues in common (Fig. 4B–D), UCP1 has evolved to have a few specific residues that allow high-affinity binding of nucleotides without a strong selection for nucleobase.
(§2) Differential scanning fluorimetry (nanoDSF) (Alexandrov et al, [2008]) was carried out with 2 µg UCP1, DIC or OGC protein (100 mM MES/HEPES, pH range 6.0–8.0, 25 mM NaCl, 1 mM TCEP, 0.01% lauryl maltose neopentyl glycol and 0.01 mg/mL tetraoleoyl cardiolipin) and, when required, 1 mM nucleotide, as indicated. The proteins have the following number of tryptophans: UCP1 (two); OGC (two); DIC (one). The samples were loaded into nanoDSF-grade standard glass capillaries. The temperature was increased by […] every minute from 25 to 95 °C, the intrinsic fluorescence was measured in a Prometheus NT.48 nanoDSF device, and the apparent Tm was calculated with the PR.ThermControl software (NanoTemper Technologies).

A further experiment addresses T3, human OGC (SLC25A11) (Homo sapiens, UniProt Q02978).
T3 construct: His8 (N, cleaved yes); Factor Xa protease cleavage site (N, cleaved yes); made in house; host or cells: Saccharomyces cerevisiae strain W303.1B
T3 sequence (Q02978 1-314): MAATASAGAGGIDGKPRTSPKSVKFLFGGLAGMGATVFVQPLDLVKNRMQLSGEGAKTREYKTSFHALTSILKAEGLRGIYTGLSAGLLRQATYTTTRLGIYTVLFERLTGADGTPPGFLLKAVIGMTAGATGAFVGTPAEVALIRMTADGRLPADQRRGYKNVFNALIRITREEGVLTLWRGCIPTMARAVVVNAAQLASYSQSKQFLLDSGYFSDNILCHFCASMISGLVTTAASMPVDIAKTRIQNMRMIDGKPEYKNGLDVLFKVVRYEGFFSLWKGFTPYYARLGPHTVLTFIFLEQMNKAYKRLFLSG
The experiment is described as above. The note with it: 1 mM nucleotide, pH 6.0, single repeats (source data Fig. 4A). In kind it is binding.
Description: as §1, §2

SMILES strings stand for the structures. Values joined by “and” are separate entries in the source; they are usually repeats but may differ in a detail not shown here. Equal entries are not always repeated.

The Kd is a measure of binding affinity in units of concentration.

For the molecule `Nc1ncnc2c1ncn2[C@@H]1O[C@H](COP(=O)(O)OP(=O)(O)OP(=O)(O)O)[C@@H](O)[C@H]1O` [ATP, adenosine triphosphate], the “binding affinity to UCP1 (in words)” value on UCP1 (ITC) is recorded as “highest binding affinities”. Also, the Kd at UCP1 (ITC, pH 6.0, 20 °C, mean ± standard deviation of three biological repeats (Fig. 2A-E)) is 880 ± 120 nM; on UCP1 (ITC, single biological repeats (source data Fig. 2F)), 810 nM and 800 nM and 1020 nM. Moreover, the “isotherm data point (enthalpy change per injection)” value on UCP1 (Molar ratio (Nucleotide/UCP) 0.120417, pH 6.0, 20 °C) is reported as -35.3409; at UCP1 (Molar ratio (Nucleotide/UCP) 0.428528, pH 6.0, 20 °C) it was -34.4517; at UCP1 (Molar ratio (Nucleotide/UCP) 0.491383, pH 6.0, 20 °C), -33.5364; on UCP1 (Molar ratio (Nucleotide/UCP) 0.554656, pH 6.0, 20 °C), -34.076; at UCP1 (Molar ratio (Nucleotide/UCP) 0.618348, pH 6.0, 20 °C), -33.0757; at UCP1 (Molar ratio (Nucleotide/UCP) 0.682464, pH 6.0, 20 °C), -31.8617. Further, the “isotherm data point (enthalpy change per injection)” value is -26.1456 at UCP1 (Molar ratio (Nucleotide/UCP) 0.811976, pH 6.0, 20 °C); -22.2535 at UCP1 (Molar ratio (Nucleotide/UCP) 0.877378, pH 6.0, 20 °C); -16.8687 at UCP1 (Molar ratio (Nucleotide/UCP) 0.943214, pH 6.0, 20 °C); -7.301 at UCP1 (Molar ratio (Nucleotide/UCP) 1.0762, pH 6.0, 20 °C); -4.354 on UCP1 (Molar ratio (Nucleotide/UCP) 1.14336, pH 6.0, 20 °C); -2.46 on UCP1 (Molar ratio (Nucleotide/UCP) 1.21096, pH 6.0, 20 °C). In addition, the “isotherm data point (enthalpy change per injection)” value on UCP1 (Molar ratio (Nucleotide/UCP) 1.41647, pH 6.0, 20 °C) was -1.066; on UCP1 (Molar ratio (Nucleotide/UCP) 1.69692, pH 6.0, 20 °C) it was -0.2462; on UCP1 (Molar ratio (Nucleotide/UCP) 1.76819, pH 6.0, 20 °C), 0.1511; at UCP1 (Molar ratio (Nucleotide/UCP) 1.91217, pH 6.0, 20 °C) it was -0.4754; on UCP1 (Molar ratio (Nucleotide/UCP) 1.98488, pH 6.0, 20 °C), 0.1711. In addition, the “change in apparent melting temperature (ΔTm) of hDIC” value at human DIC (SLC25A10) was 1.0 and 0.5 and 0.8. The “change in apparent melting temperature (ΔTm) of hOGC” value on human OGC (SLC25A11) was 0.7 and 0.4.

(Values after publication PMC12000319, “Proton conductance by human uncoupling protein 1 is inhibited by purine and pyrimidine nucleotides” (The EMBO Journal, 2025).)
